Reference: patent US20050085556A1, “Detection of cholesterol ozonation products” (priority 2003, published 2005)
“Also recorded” adds a separate entry of the source.

Key:
[1] = system: J774.1 macrophages; assay: Lipid-loading assay (foam cell formation); format: cell-based, murine; settings: LDL 100 μg/mL plus compound 20 μM, 72 h, oil red O stain
Method: Lipid-loading assay (foam cell formation). J774.1 macrophages were incubated in ATCC-recommended media containing 10% fetal bovine serum under a controlled atmosphere of 5 or 7% CO2 at 37° C., in 8-well chamber slides. […] At termination, cells were washed twice with PBS (pH 7.4). The cells were then fixed with 6% (v/v) paraformaldehyde in PBS for 30 minutes, rinsed with propylene glycol for 2 minutes and lipids were stained with 5 mg/ml Oil Red O for 8 minutes. The cells were counterstained with Harris' hematoxylin for 45 seconds, and background staining was removed with […] followed by washing once in PBS and once in tap water. Cover slips were mounted onto the glass slides using glycerol and the slide preparations were examined by light microscopy. The number of lipid-laden cells was scored out of a total of at least 100 cells counted in a single field in each slide, and expressed as a percentage of total cells. Photographs were taken at 100×magnification.

[2] = molecular target: LDL (apoB-100) (Homo sapiens, UniProt P04114); assay: Circular dichroism of LDL secondary structure; settings: LDL 100 μg/ml with compound 10 μM, PBS pH 7.4, 37° C.; for random coil of LDL protein: normal LDL 27±2%; for α helical structure of LDL protein: normal LDL ~40±2%
LDL (apoB-100), sequence (P04114 28-4563): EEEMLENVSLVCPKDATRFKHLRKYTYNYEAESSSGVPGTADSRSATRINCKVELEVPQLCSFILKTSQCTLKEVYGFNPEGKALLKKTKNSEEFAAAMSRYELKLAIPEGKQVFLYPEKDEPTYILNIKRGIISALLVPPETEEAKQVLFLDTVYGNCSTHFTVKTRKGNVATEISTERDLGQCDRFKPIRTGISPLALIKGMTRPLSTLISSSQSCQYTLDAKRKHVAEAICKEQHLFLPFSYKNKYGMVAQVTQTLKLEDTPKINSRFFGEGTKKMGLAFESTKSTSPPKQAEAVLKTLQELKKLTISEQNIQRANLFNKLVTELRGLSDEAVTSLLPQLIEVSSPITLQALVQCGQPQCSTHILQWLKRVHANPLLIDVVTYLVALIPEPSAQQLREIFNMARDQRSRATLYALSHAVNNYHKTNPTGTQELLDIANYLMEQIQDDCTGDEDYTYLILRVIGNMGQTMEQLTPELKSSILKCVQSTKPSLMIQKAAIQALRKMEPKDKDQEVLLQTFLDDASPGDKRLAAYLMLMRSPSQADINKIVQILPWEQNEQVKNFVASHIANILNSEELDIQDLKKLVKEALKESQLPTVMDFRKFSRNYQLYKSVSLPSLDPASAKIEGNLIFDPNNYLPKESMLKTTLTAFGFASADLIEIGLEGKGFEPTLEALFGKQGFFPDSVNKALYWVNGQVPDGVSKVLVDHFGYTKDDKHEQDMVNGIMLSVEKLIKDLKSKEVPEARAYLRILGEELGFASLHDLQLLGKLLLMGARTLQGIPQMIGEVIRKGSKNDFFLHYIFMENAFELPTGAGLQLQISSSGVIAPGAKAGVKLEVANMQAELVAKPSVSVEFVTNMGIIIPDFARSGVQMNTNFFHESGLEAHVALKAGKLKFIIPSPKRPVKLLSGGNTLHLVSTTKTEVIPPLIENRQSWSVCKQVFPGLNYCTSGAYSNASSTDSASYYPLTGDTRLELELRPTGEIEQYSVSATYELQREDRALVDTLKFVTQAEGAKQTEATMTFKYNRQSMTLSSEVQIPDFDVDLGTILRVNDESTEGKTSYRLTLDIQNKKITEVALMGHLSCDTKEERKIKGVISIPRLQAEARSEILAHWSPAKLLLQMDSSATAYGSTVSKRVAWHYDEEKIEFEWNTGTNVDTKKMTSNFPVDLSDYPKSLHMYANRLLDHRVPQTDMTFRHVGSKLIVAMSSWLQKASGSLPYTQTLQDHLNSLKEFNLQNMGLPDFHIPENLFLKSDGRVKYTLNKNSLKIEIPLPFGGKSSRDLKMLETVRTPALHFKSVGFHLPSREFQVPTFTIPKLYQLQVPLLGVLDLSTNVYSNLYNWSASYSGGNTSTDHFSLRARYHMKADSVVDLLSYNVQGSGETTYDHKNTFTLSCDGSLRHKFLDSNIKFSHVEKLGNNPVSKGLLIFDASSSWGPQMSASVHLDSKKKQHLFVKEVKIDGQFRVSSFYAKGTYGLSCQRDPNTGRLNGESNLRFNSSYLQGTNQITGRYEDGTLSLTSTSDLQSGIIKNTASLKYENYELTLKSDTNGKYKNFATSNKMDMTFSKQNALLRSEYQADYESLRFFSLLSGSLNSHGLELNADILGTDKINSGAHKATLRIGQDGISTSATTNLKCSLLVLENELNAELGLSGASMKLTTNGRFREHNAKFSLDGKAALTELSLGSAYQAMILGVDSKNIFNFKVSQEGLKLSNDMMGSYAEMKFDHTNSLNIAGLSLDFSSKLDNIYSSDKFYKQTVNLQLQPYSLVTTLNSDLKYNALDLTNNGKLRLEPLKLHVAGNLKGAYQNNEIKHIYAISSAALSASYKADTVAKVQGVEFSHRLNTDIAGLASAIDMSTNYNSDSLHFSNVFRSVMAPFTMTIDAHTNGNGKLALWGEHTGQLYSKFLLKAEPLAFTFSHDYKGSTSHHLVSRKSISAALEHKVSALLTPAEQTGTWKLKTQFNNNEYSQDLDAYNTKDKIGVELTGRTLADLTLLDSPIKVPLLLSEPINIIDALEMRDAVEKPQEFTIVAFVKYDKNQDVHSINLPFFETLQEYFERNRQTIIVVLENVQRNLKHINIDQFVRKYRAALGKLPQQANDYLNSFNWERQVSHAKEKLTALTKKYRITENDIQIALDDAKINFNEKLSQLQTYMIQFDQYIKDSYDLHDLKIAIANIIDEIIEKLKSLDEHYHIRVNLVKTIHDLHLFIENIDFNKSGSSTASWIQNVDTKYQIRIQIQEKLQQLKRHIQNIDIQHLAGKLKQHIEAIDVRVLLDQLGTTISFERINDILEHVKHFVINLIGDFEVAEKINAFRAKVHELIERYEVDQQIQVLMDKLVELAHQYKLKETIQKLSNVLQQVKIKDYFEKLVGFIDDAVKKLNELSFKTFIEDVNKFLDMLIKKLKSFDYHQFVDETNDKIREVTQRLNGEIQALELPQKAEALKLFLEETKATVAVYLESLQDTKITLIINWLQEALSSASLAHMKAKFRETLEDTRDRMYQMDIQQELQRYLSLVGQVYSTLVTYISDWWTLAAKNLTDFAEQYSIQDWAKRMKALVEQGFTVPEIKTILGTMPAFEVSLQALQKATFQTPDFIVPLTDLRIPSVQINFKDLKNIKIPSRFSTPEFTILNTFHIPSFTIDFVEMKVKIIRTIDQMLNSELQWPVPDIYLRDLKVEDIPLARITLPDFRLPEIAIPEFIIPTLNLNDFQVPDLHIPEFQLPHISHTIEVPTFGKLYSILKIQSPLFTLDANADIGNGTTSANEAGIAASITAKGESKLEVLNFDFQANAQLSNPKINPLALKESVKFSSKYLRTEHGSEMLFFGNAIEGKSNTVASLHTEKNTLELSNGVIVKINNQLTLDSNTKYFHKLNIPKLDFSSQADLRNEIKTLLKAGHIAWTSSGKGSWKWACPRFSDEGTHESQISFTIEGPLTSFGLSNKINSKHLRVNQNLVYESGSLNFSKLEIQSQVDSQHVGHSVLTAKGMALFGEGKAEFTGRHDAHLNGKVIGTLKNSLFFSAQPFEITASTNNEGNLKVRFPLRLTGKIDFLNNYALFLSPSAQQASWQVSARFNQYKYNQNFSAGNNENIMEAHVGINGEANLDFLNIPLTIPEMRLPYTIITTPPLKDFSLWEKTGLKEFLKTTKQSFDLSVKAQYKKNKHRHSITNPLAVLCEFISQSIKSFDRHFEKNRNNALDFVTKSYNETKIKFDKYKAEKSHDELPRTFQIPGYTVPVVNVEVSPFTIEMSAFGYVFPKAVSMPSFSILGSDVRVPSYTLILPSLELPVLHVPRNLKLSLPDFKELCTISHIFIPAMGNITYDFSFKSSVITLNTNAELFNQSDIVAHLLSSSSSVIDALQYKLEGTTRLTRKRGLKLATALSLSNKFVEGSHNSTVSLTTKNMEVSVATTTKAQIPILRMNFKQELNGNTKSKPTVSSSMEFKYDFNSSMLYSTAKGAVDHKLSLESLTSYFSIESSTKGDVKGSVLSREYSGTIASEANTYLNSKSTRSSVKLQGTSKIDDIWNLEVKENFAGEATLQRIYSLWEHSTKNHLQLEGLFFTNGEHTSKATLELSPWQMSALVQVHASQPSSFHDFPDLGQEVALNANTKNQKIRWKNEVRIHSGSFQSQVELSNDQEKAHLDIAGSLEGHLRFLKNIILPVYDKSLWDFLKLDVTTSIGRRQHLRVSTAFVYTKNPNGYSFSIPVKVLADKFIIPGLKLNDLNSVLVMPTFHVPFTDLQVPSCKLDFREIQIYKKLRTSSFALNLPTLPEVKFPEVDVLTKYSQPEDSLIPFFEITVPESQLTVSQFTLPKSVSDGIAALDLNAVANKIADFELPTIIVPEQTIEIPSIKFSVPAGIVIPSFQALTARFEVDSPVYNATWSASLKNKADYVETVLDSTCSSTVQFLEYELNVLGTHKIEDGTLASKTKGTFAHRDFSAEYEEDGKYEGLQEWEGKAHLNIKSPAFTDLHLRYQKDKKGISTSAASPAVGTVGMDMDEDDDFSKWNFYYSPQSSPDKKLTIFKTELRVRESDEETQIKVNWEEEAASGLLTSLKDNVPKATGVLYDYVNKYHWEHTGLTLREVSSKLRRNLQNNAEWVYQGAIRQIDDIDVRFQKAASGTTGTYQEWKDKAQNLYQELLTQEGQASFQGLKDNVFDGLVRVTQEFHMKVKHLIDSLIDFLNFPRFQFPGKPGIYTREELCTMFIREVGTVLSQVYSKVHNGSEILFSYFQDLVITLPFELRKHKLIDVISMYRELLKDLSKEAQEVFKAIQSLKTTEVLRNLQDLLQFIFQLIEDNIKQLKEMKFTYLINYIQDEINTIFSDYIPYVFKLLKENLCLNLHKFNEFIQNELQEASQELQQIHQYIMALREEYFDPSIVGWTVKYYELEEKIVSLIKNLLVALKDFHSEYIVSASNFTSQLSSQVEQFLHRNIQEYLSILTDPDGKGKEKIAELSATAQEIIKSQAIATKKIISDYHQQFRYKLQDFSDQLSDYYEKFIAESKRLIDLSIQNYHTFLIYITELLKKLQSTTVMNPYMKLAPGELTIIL
Method: Circular dichroism. […] Spectra were recorded in the peptidic range (200-260 nm). To increase the signal-to-noise ratio, multiple spectra (three) were averaged for each measurement.

SMILES | lipid-loading of macrophages (foam cell formation) [1] | random coil of LDL protein [2] [%] | α helical structure of LDL protein [2] [%]
CC(C)CCC[C@@H](C)[C@H]1CCC2C(CC=O)C([C@@]3(C)CC[C@H](O)CC3=O)CC[C@@]21C (stereo partly drawn) [4a, 3β-Hydroxy-5-oxo-5,6-secocholestan-6-al] | macrophages began lipid-loading and foam cells began to appear; also recorded: induces lipid-loading of macrophages to produce foam cells | ~39±2 | ~23±5
CC(C)CCC[C@@H](C)[C@H]1CCC2C3C(CC[C@@]21C)[C@@]1(C)CC[C@H](O)C[C@@]1(O)[C@@H]3C=O (stereo partly drawn) [5a, 3β-Hydroxy-5β-hydroxy-B-norcholestane-6β-carboxaldehyde] | macrophages began lipid-loading and foam cells began to appear; also recorded: effect of ozonolysis product 4a upon macrophages was indistinguishable from the effect of ozonolysis product 5a | 32±4 | ~20±2
